Measured values reported in US8273782B2, “Inhibitors of Akt activity” (GlaxoSmithKline LLC, priority 2007, dated 2012).

What was measured:
full length AKT1 = target: T1, full length AKT1 (Homo sapiens, UniProt P31749); experiment: AKT enzyme assay (substrate phosphorylation, SPA), full length AKT1; format: biochemical; settings: in at least one experimental run; pIC50 = -log(IC50), IC50 in molar units
T1 construct: Full-length human AKT1 gene was amplified by PCR; His tag (from vector pFastbacHTb; N-terminal position is own knowledge of the vector) (N); made in house; host or cells: baculovirus; Sf9 / T. ni insect cells

full length AKT3 = target: T2, full length AKT3 (Homo sapiens, UniProt Q9Y243); experiment: AKT enzyme assay (substrate phosphorylation, SPA), full length AKT3; format: biochemical; settings: in at least one experimental run; pIC50 = -log(IC50), IC50 in molar units
T2 construct: Full length AKT2 and full length AKT3 were cloned, expressed and purified in a similar fashion; His tag (inferred: made in a similar fashion to AKT1 in pFastbacHTb with nickel purification) (N); made in house; host or cells: baculovirus; insect cells (by analogy with AKT1)
Protocol: Compounds of the present invention are tested for AKT 1, 2, and 3 protein serine kinase inhibitory activity in substrate phosphorylation assays. This assay examines the ability of small molecule organic compounds to inhibit the serine phosphorylation of a peptide substrate. […] AKT 1, 2 and 3 are also commercially available from Upstate USA, Inc. The method measures the ability of the isolated enzyme to catalyze the transfer of the gamma-phosphate from ATP onto the serine residue of a biotinylated synthetic peptide SEQ. […] Substrate phosphorylation is detected by the following procedure:
ATP/well, 1 mM CHAPS, 2 mM DTT, and 1 ul of test compound in 100% DMSO. The reaction is stopped by the addition of 50 ul SPA bead mix (Dulbecco's PBS without Mg^2+ and Ca^2+, 0.1% Triton X-100, 5 mM EDTA, 50 uM ATP, 2.5 mg/ml Streptavidin-coated SPA beads.) The plate is sealed, the beads are allowed to settle overnight, and then the plate is counted in a Packard Topcount Microplate Scintillation Counter (Packard Instrument Co., Meriden, Conn.).
The data for dose responses are plotted as % Control calculated with the data reduction formula 100*(U1−C2)/(C1−C2) versus concentration of compound where U is the unknown value, C1 is the average control value obtained for DMSO, and C2 is the average control value obtained for 0.1M EDTA. […]

T2 sequence (Q9Y243 whole entry): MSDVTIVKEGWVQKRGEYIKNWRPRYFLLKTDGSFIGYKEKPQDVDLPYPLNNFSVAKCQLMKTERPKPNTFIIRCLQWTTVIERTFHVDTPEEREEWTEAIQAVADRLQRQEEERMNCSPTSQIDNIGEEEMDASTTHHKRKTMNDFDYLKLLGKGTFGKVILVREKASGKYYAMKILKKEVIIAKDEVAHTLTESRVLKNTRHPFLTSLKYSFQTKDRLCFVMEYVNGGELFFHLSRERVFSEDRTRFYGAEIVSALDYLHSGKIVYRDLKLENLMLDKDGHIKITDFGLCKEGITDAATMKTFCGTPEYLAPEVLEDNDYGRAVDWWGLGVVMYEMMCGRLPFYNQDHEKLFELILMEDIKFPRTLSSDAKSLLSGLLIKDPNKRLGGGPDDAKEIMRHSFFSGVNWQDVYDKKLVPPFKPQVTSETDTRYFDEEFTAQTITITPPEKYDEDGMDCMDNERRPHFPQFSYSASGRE
T1 sequence (P31749 whole entry): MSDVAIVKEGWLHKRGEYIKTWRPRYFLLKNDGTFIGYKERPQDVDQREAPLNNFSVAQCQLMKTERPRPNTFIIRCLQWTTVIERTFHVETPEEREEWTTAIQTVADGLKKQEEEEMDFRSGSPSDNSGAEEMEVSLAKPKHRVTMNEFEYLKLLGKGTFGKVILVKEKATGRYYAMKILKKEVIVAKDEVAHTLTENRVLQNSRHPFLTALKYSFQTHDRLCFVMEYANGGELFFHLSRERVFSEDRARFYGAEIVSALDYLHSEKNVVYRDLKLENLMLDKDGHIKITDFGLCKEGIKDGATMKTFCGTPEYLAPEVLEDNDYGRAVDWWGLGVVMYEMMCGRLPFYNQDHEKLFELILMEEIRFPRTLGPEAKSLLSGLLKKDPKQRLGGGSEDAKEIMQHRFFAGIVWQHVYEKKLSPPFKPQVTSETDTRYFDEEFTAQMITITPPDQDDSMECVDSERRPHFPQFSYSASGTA

pIC50 value against full length AKT1 (full length AKT1) | pIC50 value against full length AKT3 (full length AKT3) | SMILES
8.8 | 7.6 | Cc1sc(C(=O)N[C@H](CN)Cc2cccc(F)c2)cc1-c1c(Cl)cnn1C [Example 161, N-{(1S)-2-amino-1-[(3-fluorophenyl)methyl]ethyl}-4-(4-chloro-1-methyl-1H-pyrazol-5-yl)-5-methyl-2-thiophenecarboxamide]
9.0 | 8.4 | Cn1ncc(Cl)c1-c1cc(C(=O)N[C@H](CN)Cc2cccc(F)c2)oc1Cl [Example 137, N-{(1S)-2-amino-1-[(3-fluorophenyl)methyl]ethyl}-5-chloro-4-(4-chloro-1-methyl-1H-pyrazol-5-yl)-2-furancarboxamide]
